From publication PMC6744936, “Genome-wide identification, characterization and expression pattern analysis of APYRASE family members in response to abiotic and biotic stresses in wheat” (PeerJ, 2019)

Tested on: T1, TaAPY3-1
T1 construct: pET22a, E. coli BL21; genome set A copy
Assay: phosphate release (Phosphate Assay Kit)
Type: biochemical, Triticum aestivum
Conditions: 37 °C, pH 5.5, 8 mM Ca2+

Km: 8.7 mM
Compound: Nc1ncnc2c1ncn2[C@@H]1O[C@H](COP(=O)(O)OP(=O)(O)OP(=O)(O)O)[C@@H](O)[C@H]1O [ATP]
